The values that follow come from US20140323504A1, “Pyrazolo[4,3-c]Pyridine Derivatives As Kinase Inhibitors” (Cellzome Limited, priority 2011, published 2014).

Holding throughout (format): binding
The target of one test is T1, JAK1 (Homo sapiens, UniProt P23458).
T1 construct: endogenous in cells; host or cells: mixed Molt4/Ramos cell lysate (1:2)
Put plainly: Kinobeads assay with antibody detection, JAK1. The settings on record: mixed Molt4/Ramos lysate, read-out: JAK1 inhibition value (IC50). As for the experimental part: (§1) The compounds of the present invention as described in the previous examples were tested in a Kinobeads™ assay as described for ZAP-70 (WO-A 2007/137867). Briefly, test compounds (at various concentrations) and the affinity matrix with the immobilized aminopyrido-pyrimidine ligand 24 were added to cell lysate aliquots and allowed to bind to the proteins in the lysate sample. After the incubation time the beads with captured proteins were separated from the lysate. Bound proteins were then eluted and the presence of JAK1; JAK2, JAK3 and TYK2 was detected and quantified using specific antibodies in a dot blot procedure and the Odyssey infrared detection system. Dose response curves for individual kinases were generated and IC50 values calculated. Kinobeads™ assays for ZAP-70 (WO-A 2007/137867) and for kinase selectivity profiling (WO-A 2006/134056) have been previously described.
(§2) 5×DP buffer: 250 mM Tris-HCl pH 7.4, 25% Glycerol, 7.5 mM MgCl2, 750 mM NaCl, 5 mM Na3VO4; filter the 5×DP buffer through a 0.22 μm filter and store in aliquot at −80° C. The 5×DP buffer is diluted with H2O to 1×DP buffer containing 1 mM DTT and 25 mM NaF.
(§3) Stock solutions of test compounds were prepared in DMSO. In a 96 well plate 30 μL solution of diluted test compounds at 5 mM in DMSO were prepared. Starting with this solution a 1:3 dilution series (9 steps) was prepared. For control experiments (no test compound) a buffer containing 2% DMSO was used.
(§4) Molt4 cells (ATCC catalogue number CRL-1582) and Ramos cells (ATCC catalogue number CRL-1596) were grown in 1 L Spinner flasks (Integra Biosciences, #182101) in suspension in RPMI 1640 medium (Invitrogen, #21875-034) supplemented with 10% Fetal Bovine Serum (Invitrogen) at a density between 0.15×10^6 and 1.2×10^6 cells/mL. Cells were harvested by centrifugation, washed once with 1×PBS buffer (Invitrogen, #14190-094) and cell pellets were frozen in liquid nitrogen and subsequently stored at −80° C. Cells were homogenized in a Potter S homogenizer in lysis buffer: 50 mM Tris-HCl, 0.8% NP40, 5% glycerol, 150 mM NaCl, 1.5 mM MgCl2, 25 mM NaF, 1 mM sodium vanadate, 1 mM DTT, pH 7.5. One complete EDTA-free tablet (protease inhibitor cocktail, Roche Diagnostics, 1873580) per 25 mL buffer was added. The material was dounced 10 times using a mechanized POTTER S, transferred to 50 mL falcon tubes, incubated for 30 minutes on ice and spun down for 10 minutes at 20,000 g at 4° C. (10,000 rpm in Sorvall SLA600, precooled). The supernatant was transferred to an ultracentrifuge (UZ)-polycarbonate tube (Beckmann, 355654) and spun for 1 hour at 100.000 g at 4° C. (33.500 rpm in Ti50.2, precooled). The supernatant was transferred again to a fresh 50 mL falcon tube, the protein concentration was determined by a Bradford assay (BioRad) and samples containing 50 mg of protein per aliquot were prepared. The samples were immediately used for experiments or frozen in liquid nitrogen and stored frozen at −80° C.
(§5) Cell lysate (approximately 50 mg protein per plate) was thawed in a water bath at room temperature and then stored on ice. To the thawed cell lysate 1×DP 0.8% NP40 buffer containing protease inhibitors (1 tablet for 25 mL buffer; EDTA-free protease inhibitor cocktail; Roche. Diagnostics 1873580) was added in order to reach a final protein concentration of 10 mg/mL total protein. The diluted cell lysate was stored on ice. Mixed Molt4Ramos lysate was prepared by combining one volume of Molt4 lysate and two volumes of Ramos lysate (ratio 1:2).
(§6) Plates were sealed and incubated for 3 hours in a cold room on a plate shaker (Heidolph tiramax 1000) at 750 rpm. Afterwards the plate was washed 3 times with 230 μL washing buffer (1×DP 0.4% NP40). The filter plate was placed on top of a collection plate (Greiner bio-one, PP-microplate 96 well V-shape, 65120) and the beads were then eluted with 20 μL of sample buffer (100 mM Tris, pH 7.4, 4% SDS, 0.00025% bromophenol blue, 20% glycerol, 50 mM DTT). […]

The target of a further test is T2, JAK2 (Homo sapiens, UniProt O60674).
T2 construct: endogenous in cells; host or cells: mixed Molt4/Ramos cell lysate (1:2)
T2 sequence (O60674 whole entry): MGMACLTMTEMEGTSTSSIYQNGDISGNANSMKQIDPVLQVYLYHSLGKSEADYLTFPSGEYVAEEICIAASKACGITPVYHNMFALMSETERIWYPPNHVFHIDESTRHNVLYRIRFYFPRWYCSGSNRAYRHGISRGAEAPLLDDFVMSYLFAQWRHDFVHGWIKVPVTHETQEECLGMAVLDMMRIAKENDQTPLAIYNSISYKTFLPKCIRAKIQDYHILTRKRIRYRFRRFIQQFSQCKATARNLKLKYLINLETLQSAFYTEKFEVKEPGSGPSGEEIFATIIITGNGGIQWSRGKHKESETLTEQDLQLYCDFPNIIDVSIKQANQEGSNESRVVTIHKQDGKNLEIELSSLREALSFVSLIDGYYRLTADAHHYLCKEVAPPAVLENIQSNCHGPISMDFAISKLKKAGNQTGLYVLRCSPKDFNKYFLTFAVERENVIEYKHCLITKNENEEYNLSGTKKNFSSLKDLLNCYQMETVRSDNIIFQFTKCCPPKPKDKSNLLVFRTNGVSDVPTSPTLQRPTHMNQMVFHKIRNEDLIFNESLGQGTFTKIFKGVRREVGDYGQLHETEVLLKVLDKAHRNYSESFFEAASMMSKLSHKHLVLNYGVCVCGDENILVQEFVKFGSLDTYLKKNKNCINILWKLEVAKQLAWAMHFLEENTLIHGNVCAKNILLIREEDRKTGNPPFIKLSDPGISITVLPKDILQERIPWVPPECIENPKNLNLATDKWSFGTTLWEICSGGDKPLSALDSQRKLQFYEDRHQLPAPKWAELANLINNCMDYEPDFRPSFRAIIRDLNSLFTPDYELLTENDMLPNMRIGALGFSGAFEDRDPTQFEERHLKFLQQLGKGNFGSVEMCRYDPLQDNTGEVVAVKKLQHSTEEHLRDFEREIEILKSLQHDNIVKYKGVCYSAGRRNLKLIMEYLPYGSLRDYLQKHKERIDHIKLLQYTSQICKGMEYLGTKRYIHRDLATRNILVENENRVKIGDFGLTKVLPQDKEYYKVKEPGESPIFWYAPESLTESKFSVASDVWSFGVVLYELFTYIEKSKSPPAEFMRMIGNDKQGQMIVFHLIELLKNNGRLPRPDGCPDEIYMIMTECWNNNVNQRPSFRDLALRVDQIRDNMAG
Nature of the test: Kinobeads assay with antibody detection, JAK2. The settings on record: mixed Molt4/Ramos lysate, read-out: JAK2 inhibition value (IC50). As for the experimental part:
as §1, §2, §3, §4, §5, §6

Another test addresses T3, Tyk2 (Homo sapiens, UniProt P29597).
T3 construct: endogenous in cells; host or cells: mixed Molt4/Ramos cell lysate (1:2)
Nature of the test: Kinobeads assay with antibody detection, TYK2. The conditions noted are these: mixed Molt4/Ramos lysate, read-out: Tyk2 inhibition value (IC50). The procedure: as §1, §2, §3, §4, §5, §6

T3 sequence (P29597 whole entry): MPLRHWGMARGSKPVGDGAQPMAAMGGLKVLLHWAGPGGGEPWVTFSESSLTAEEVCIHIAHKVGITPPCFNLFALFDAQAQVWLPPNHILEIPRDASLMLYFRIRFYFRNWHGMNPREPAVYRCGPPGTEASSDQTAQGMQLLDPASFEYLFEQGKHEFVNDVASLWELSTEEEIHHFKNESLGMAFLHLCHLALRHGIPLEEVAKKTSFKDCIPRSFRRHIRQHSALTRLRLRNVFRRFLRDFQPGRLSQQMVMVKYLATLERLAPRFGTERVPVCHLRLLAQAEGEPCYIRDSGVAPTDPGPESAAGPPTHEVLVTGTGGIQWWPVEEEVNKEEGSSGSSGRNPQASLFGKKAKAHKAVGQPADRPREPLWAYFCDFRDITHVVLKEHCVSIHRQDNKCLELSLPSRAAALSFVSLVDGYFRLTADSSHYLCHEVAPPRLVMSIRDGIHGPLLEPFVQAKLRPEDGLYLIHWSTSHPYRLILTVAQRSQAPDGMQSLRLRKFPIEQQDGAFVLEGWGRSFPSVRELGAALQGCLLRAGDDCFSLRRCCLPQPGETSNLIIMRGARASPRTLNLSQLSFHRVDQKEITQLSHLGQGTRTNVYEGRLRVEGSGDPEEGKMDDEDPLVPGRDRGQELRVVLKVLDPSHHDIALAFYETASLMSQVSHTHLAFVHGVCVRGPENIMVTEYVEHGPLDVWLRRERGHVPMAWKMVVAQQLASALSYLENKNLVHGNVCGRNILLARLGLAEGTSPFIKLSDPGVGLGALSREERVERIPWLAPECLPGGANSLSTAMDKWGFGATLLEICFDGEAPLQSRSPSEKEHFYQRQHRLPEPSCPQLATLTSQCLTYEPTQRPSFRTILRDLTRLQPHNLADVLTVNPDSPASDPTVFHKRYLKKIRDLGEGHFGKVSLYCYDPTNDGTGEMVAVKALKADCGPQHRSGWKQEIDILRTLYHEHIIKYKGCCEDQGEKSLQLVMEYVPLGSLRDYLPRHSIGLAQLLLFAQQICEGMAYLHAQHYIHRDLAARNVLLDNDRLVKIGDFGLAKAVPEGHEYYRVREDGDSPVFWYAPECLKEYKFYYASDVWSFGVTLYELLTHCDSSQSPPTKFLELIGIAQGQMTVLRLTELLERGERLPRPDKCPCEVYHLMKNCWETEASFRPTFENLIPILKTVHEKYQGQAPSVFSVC
T1 sequence (P23458 whole entry): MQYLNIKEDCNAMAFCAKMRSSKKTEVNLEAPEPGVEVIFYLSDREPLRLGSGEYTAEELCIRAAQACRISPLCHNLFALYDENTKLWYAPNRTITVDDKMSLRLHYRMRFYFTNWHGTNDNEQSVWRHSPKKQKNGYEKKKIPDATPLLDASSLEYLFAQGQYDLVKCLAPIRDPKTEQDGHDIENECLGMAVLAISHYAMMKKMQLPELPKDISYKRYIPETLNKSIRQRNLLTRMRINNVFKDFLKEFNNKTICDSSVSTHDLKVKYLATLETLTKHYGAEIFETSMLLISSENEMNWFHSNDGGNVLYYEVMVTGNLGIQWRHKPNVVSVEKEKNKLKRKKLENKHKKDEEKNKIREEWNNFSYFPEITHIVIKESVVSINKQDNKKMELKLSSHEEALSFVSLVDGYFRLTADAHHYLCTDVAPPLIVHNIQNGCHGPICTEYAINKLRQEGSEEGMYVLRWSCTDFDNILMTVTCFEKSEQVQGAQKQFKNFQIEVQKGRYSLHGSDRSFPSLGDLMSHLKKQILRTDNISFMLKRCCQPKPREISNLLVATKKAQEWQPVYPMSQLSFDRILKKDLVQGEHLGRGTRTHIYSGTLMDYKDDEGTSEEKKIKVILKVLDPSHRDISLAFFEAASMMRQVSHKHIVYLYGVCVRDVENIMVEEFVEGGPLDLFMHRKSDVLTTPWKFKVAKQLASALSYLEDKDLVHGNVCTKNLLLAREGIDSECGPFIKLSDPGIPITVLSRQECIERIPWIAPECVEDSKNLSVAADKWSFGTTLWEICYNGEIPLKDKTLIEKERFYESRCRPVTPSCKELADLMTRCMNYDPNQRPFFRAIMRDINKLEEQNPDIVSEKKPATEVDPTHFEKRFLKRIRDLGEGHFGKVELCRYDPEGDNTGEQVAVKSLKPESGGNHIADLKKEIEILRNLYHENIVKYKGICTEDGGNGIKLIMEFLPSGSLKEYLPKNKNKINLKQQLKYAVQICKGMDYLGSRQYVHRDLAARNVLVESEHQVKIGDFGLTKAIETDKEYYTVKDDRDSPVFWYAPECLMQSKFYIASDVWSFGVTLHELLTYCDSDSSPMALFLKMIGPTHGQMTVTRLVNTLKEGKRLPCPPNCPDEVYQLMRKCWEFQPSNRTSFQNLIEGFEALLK

Turning to `CC(=O)Nc1cccc(Cn2ncc3cnc(Nc4cnn(C)c4)nc32)c1` [compound 2, N-(3-((6-((1-methyl-1H-pyrazol-4-yl)amino)-1H-pyrazolo[3,4-d]pyrimidin-1-yl)methyl)phenyl)acetamide, reference compound], the IC50 at JAK1, at JAK2 and at Tyk2 was more than 10 µM in each case.

Take `C=C(C)C(=O)Nc1cccc(Cn2ncc3cnc(Nc4cnn(C)c4)nc32)c1` [Example 5, N-(3-((6-((1-Methyl-1H-pyrazol-4-yl)amino)-1H-pyrazolo[3,4-d]pyrimidin-1-yl)methyl)phenyl)methacrylamide]: the IC50 on JAK1, at JAK2 and on Tyk2 was more than 10 µM in each case.

On to `C=CS(=O)(=O)Nc1cccc(Cn2ccc3cnc(Nc4cnn(C)c4)nc32)c1` [Example 7, N-(3-((2-((1-Methyl-1H-pyrazol-4-yl)amino)-7H-pyrrolo[2,3-d]pyrimidin-7-yl)methyl)phenyl)ethenesulfonamide], for which the IC50 at JAK1 is 7.69 µM; at JAK2, more than 10 µM; on Tyk2, 0.901 µM.

As to `C=CS(=O)(=O)Nc1cccc(Cn2ncc3cnc(Nc4cnn(C)c4)nc32)c1` [Example 4, N-(3-((6-((1-Methyl-1H-pyrazol-4-yl)amino)-1H-pyrazolo[3,4-d]pyrimidin-1-yl)methyl)phenyl)ethenesulfonamide], the IC50 at JAK1 is more than 10 µM; at JAK2 it was more than 10 µM; at Tyk2, 6.13 µM.

Consider `C#CC(=O)Nc1cccc(Cn2ncc3cnc(Nc4cnn(C)c4)nc32)c1` [Example 3, N-(3-((6-((1-Methyl-1H-pyrazol-4-yl)amino)-1H-pyrazolo[3,4-d]pyrimidin-1-yl)methyl)phenyl)propiolamide], for which the IC50 at JAK1 is more than 10 µM; on JAK2, more than 10 µM; at Tyk2, 6.96 µM.

Take `C=CC(=O)Nc1cc(Cn2ncc3cnc(Nc4cnn(C)c4)nc32)ccc1F` [Example 2, […]]: the IC50 on JAK1, on JAK2 and at Tyk2 was more than 10 µM in each case.

For the compound `C=CC(=O)Nc1cccc(Cn2ncc3cnc(Nc4cnn(C)c4)nc32)c1` [Example 1, N-(3-((6-((1-Methyl-1H-pyrazol-4-yl)amino)-1H-pyrazolo[3,4-d]pyrimidin-1-yl)methyl)phenyl)acrylamide], the IC50 on JAK1, on JAK2 and at Tyk2 was more than 10 µM throughout.

The IC50 is the concentration that gives 50% inhibition.
